Test results taken from EP3748362A1, “IN VITRO METHOD FOR DETECTING RENAL DISEASE” (Fundacion Instituto De Investigacion Sanitaria Fundacion …, priority 2019, dated 2020).
Entries after “also recorded” stand apart in the source; their conditions may differ.

How the values were obtained:
[1] = test system: TWEAK-induced renal inflammation; test: TWEAK-induced renal inflammation in mice (immunohistochemistry, real time PCR, ELISA); type: in vivo, C57BL/6 mice; settings: TWEAK-injected mice, paricalcitol 750 ng/kg/day or SN52 0.7 mg/mouse/day
Procedure: (§1) All animal procedures were performed according to the guidelines of animal research in the European Community and with prior approval by the Ethics Committee of the Health Research of the IIS-Fundacion Jiménez Díaz. For in vivo studies, mice received a daily intraperitoneal injection of the VDRA Paricalcitol starting 48 hours prior to induction of kidney damage.
At the time of sacrifice, animals were anesthetized with 5 mg/kg xylazine (Rompun, Bayer AG) and 35 mg/kg ketamine (Ketolar, Pfizer) and the kidneys perfused in situ with cold saline before removal. […]
Paraffin-embedded kidney sections (3 µm) were stained using conventional methods. […] For each sample (processed by duplicate in a blinded manner), the average value was obtained from the analysis of 4 fields (20X objective) as density/mm2 or percentage stained area vs total analyzed area. Data are expressed as fold increase over control mice, as mean ± SEM of 8-10 animals per group. […]
ELISA was used to evaluate levels of the chemokines CCL2 and CCL5 (eBioscience). In renal samples, total protein content was determined by the BCA method, and equal amounts of protein were analyzed. Data are expressed as n-fold increase over the mean of control levels.
Total RNA was isolated from cells and mouse kidney samples with Trizol (Invitrogen). […] The mRNA copy numbers were calculated for each sample by the instrument software using Ct value. […]

NF-κB1 = test: Canonical NF-κB1 activation in kidneys of TWEAK-injected mice; type: in vivo; settings: kidneys from TWEAK-injected mice; paricalcitol 750 ng/kg/day
Procedure: as §1
At the time of sacrifice, animals were anesthetized with 5 mg/kg xylazine (Rompun, Bayer AG) and 35 mg/kg ketamine (Ketolar, Pfizer) and the kidneys perfused in situ with cold saline before removal. Then, kidney portions were fixed in formalin buffer for immunohistochemistry studies or immediately frozen in liquid nitrogen for gene and protein studies.
TWEAK administration: C57BL/6 female mice (9-12 weeks, weight 20 g, 7-8 animals per group), received a single intraperitoneal injection of 0.5 µg TWEAK dissolved in saline and were sacrificed 24 hours later, as previously described (Sanz et al. 2008). Controls were injected with the saline vehicle (n=8-10 mice per group). TWEAK endotoxin level were <0.1 ng/mg, confirmed by MALDI-TOF. […]
For western blot, cell (25 µg/lane) and kidney (100-150 µg/lane) protein extracts were separated on 6%-12% polyacrylamide-SDS gels under reducing conditions. […] Autoradiographs were scanned using the Gel Doc™ EZ imager and analyzed with the Image Lab 3.0 software (BioRad).

## C[C@H](/C=C/[C@H](C)C(C)(C)O)[C@H]1CC[C@H]2/C(=C/C=C3C[C@@H](O)C[C@H](O)C3)CCC[C@]12C [paricalcitol]
[1]; kidney, real time PCR, ELISA
  proinflammatory factors, such as CCL2, CCL5 and IL-6: significantly decreased
[1]; kidney immunohistochemistry
  infiltrating monocytes/macrophages (F4/80+ cells), T lymphocytes (CD3+ cells): significantly decreased
NF-κB1
  IκBα phosphorylation and nuclear p65 NF-κB levels: not modulated; also recorded: not modified
